This is an account of results in patent US11807693B2 (priority 2014, dated 2023).

Common to all, as to format: in vitro ADME
A short description of data set [1]: In vitro stability in rat plasma. In outline:
(§1)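 Apelin peptides spiked to 5 μM final into rat plasma, liver homogenate or kidney homogenate and incubated at 37° C. for up to 4 hr. Aliquots quenched with MeOH containing internal standard, centrifuged, and supernatants analysed by high-resolution LC-MS.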

The nature of data set [2]: In vitro stability in rat liver homogenate. Particulars: tissue homogenate. In outline:
as §1

Data set [3] can be described thus: In vitro stability in rat kidney homogenate. Particulars: rat, tissue homogenate. As to the method:
Apelin peptides were spiked into rat plasma, liver homogenate, and kidney homogenate, which were obtained from commercial sources, to a final concentration of 5 μM. The samples were then incubated at 37° C. over a period of 4 hr. […] In a typical experiment, an aliquot of 100 μL of sample was taken from the incubation vial, followed by addition of 300 μL of MeOH containing internal standard. The quenched sample was centrifuged at 5500 g for 15 min after 15 min vortex in room temperature. The supernatant was then analyzed by high resolution LC-MS. […] In vitro plasma, […], and kidney stability results are shown below in Table 14.

Starred links: 1 amine or outer side, 2 acyl side, 3 side chain; linkers in the order of their positions; H or OH if unused. Non-standard residues stand in square brackets, D forms with d. Residues, ends and D or L forms follow the SMILES beside them. No end group written: not given here. *: point of attachment. Oic = O=C(O)[C@@H]1C[C@@H]2CCCC[C@@H]2N1; Phe(4-Cl) = N[C@@H](Cc1ccc(Cl)cc1)C(=O)O; γGlu = O=C(O)[C@H](CCC(=O)[*:2])N[*:1]; d(β3hF) = N[C@@H](CC(=O)O)Cc1ccccc1; NMeR = CN[C@@H](CCCNC(=N)N)C(=O)O; Palmitoyl = CCCCCCCCCCCCCCCC(=O)*; Tridecanoyl = CCCCCCCCCCCCC(=O)*; hArg = N=C(N)NCCCC[C@H](N)C(=O)O; Cha = N[C@@H](CC1CCCCC1)C(=O)O; αMeL = CC(C)C[C@](C)(N)C(=O)O; αMeP = C[C@@]1(C(=O)O)CCCN1; β3hV = CC(C)[C@H](N)CC(=O)O; β3hP = O=C(O)C[C@@H]1CCCN1; Pip = O=C(O)[C@@H]1CCCCN1; Nle = CCCC[C@H](N)C(=O)O; Orn = NCCC[C@H](N)C(=O)O; Hexanoyl = CCCCCC(=O)*; AEEA = NCCOCCOCC(=O)O; Aib = CC(C)(N)C(=O)O; Inp = O=C(O)C1CCNCC1

Take `CCCCCCCCCCCCC(=O)N[C@@H](CCC(=O)NCCOCCOCC(=O)NCCOCCOCC(=O)N[C@@H](CCCN)C(=O)N[C@@H](Cc1ccccc1)C(=O)N[C@@H](CCCCNC(=N)N)C(=O)N[C@@H](CCCCNC(=N)N)C(=O)N[C@H](CC(=O)N[C@@H](CCCCNC(=N)N)C(=O)N1CCC[C@H]1C(=O)N[C@@H](CCCCNC(=N)N)C(=O)N[C@@H](CC1CCCCC1)C(=O)N[C@@H](CO)C(=O)N[C@@H](Cc1c[nH]cn1)C(=O)N[C@@H](CCCCN)C(=O)NCC(=O)N1[C@H](C(=O)N[C@@H](CCCC)C(=O)N2CCC[C@H]2C(=O)N[C@@H](Cc2ccc(Cl)cc2)C(=O)O)C[C@@H]2CCCC[C@@H]21)C(C)C)C(=O)O` [compound 307] ({Tridecanoyl-γGlu-AEEA-AEEA}-[Orn]F[hArg][hArg][β3hV][hArg]P[hArg][Cha]SHKG[Oic][Nle]P[Phe(4-Cl)]-OH): the figures for the share remaining at 4 h, 5 μM in data set [1], in data set [2] and in data set [3] were greater than 90%, 66.8% and 13.8%, respectively.

Take `CCCCCCCCCCCCCCCC(=O)N[C@@H](CCC(=O)NCCOCCOCC(=O)NCCOCCOCC(=O)N[C@H](CCC(N)=O)C(=O)N[C@@H](CCCNC(=N)N)C(=O)N1CCC[C@H]1C(=O)N(C)[C@@H](CCCNC(=N)N)C(=O)N[C@@H](CC1CCCCC1)C(=O)N[C@@H](CO)C(=O)N[C@@H](Cc1c[nH]cn1)C(=O)N[C@@H](CCCCN)C(=O)NCC(=O)N1[C@H](C(=O)N[C@@H](CCCC)C(=O)N2CCC(C(=O)N[C@@H](Cc3ccc(Cl)cc3)C(=O)O)CC2)C[C@@H]2CCCC[C@@H]21)C(=O)O` [compound 587] ({Palmitoyl-γGlu-AEEA-AEEA}-[dQ]RP[NMeR][Cha]SHKG[Oic][Nle][Inp][Phe(4-Cl)]-OH): the fraction remaining (as a rule, what is left of the initial amount, in per cent) at 4 h, 5 μM in data set [1] is greater than 90%; in data set [2] it was 64%; in data set [3], 34%.

`CCCCCCCCCCCCC(=O)N[C@@H](CCC(=O)N[C@@H](CCC(=O)NCCOCCOCC(=O)N[C@H](CCC(N)=O)C(=O)N[C@@H](CCCNC(=N)N)C(=O)N1CCC[C@H]1C(=O)N(C)[C@@H](CCCNC(=N)N)C(=O)N[C@@H](CC1CCCCC1)C(=O)N[C@@H](CO)C(=O)N[C@@H](Cc1c[nH]cn1)C(=O)N[C@@H](CCCCN)C(=O)NCC(=O)N1[C@H](C(=O)N[C@@H](CCCC)C(=O)NC(C)(C)C(=O)N[C@@H](Cc2ccc(Cl)cc2)C(=O)O)C[C@@H]2CCCC[C@@H]21)C(=O)O)C(=O)O` [compound 535] ({Tridecanoyl-γGlu-γGlu-AEEA}-[dQ]RP[NMeR][Cha]SHKG[Oic][Nle][Aib][Phe(4-Cl)]-OH): the share remaining at 4 h, 5 μM is 89% in data set [1], 3% in data set [2] and less than 1% in data set [3].

With `CCCCCCCCCCCCC(=O)N[C@@H](CCC(=O)NCCOCCOCC(=O)NCCOCCOCC(=O)N[C@H](CCC(N)=O)C(=O)N[C@@H](CCCNC(=N)N)C(=O)N1CCC[C@@]1(C)C(=O)N[C@@H](CCCCNC(=N)N)C(=O)N[C@H](CC(=O)N[C@@H](CO)C(=O)N[C@@H](Cc1c[nH]cn1)C(=O)N[C@@H](CCCCN)C(=O)NCC(=O)N1[C@H](C(=O)N[C@@H](CCCC)C(=O)N2CCC[C@@]2(C)C(=O)N[C@@H](Cc2ccc(Cl)cc2)C(=O)O)C[C@@H]2CCCC[C@@H]21)C(C)C)C(=O)O` [compound 502] ({Tridecanoyl-γGlu-AEEA-AEEA}-[dQ]R[αMeP][hArg][β3hV]SHKG[Oic][Nle][αMeP][Phe(4-Cl)]-OH), the fraction remaining at 4 h, 5 μM in data set [1] was greater than 90%; in data set [2], 34%; in data set [3] it was 19%.

In the case of `CCCCCCCCCCCCC(=O)N[C@@H](CCC(=O)NCCOCCOCC(=O)NCCOCCOCC(=O)N[C@@H](CCC(N)=O)C(=O)N[C@@H](CCCNC(=N)N)C(=O)N1CCC[C@H]1C(=O)N(C)[C@@H](CCCNC(=N)N)C(=O)N[C@@](C)(CC(C)C)C(=O)N[C@@H](CO)C(=O)N[C@@H](Cc1c[nH]cn1)C(=O)N[C@@H](CCCCN)C(=O)NCC(=O)N1CCC[C@@]1(C)C(=O)N[C@@H](CCCC)C(=O)N1CCC[C@H]1C(=O)N[C@@H](Cc1ccc(Cl)cc1)C(=O)O)C(=O)O` [compound 387], the fraction remaining at 4 h, 5 μM in data set [1] is 73%; in data set [2], 4%; in data set [3], 1%.

Consider `CCCCCCCCCCCCC(=O)N[C@@H](CCC(=O)NCCOCCOCC(=O)NCCOCCOCC(=O)N[C@H](CCC(N)=O)C(=O)N[C@@H](CCCNC(=N)N)C(=O)N1CCC[C@H]1C(=O)N(C)[C@@H](CCCNC(=N)N)C(=O)N[C@@H](CC1CCCCC1)C(=O)N[C@@H](CO)C(=O)N[C@@H](Cc1c[nH]cn1)C(=O)N[C@@H](CCCCN)C(=O)NCC(=O)N1CCC[C@@]1(C)C(=O)N[C@@H](CCCC)C(=O)NC(C)(C)C(=O)N[C@@H](Cc1ccc(Cl)cc1)C(=O)O)C(=O)O` [compound 498] ({Tridecanoyl-γGlu-AEEA-AEEA}-[dQ]RP[NMeR][Cha]SHKG[αMeP][Nle][Aib][Phe(4-Cl)]-OH), for which the figures for the amount remaining at 4 h, 5 μM in data set [1], in data set [2] and in data set [3] were greater than 90%, greater than 90% and 23%, respectively.

As for `CCCCCCCCCCCCC(=O)N[C@@H](CCC(=O)NCCOCCOCC(=O)NCCOCCOCC(=O)N[C@H](CCC(N)=O)C(=O)N[C@@H](CCCNC(=N)N)C(=O)N1CCCC[C@H]1C(=O)N(C)[C@@H](CCCNC(=N)N)C(=O)N[C@@H](CC1CCCCC1)C(=O)N[C@@H](CO)C(=O)N[C@@H](Cc1c[nH]cn1)C(=O)N[C@@H](CCCCN)C(=O)NCC(=O)N1[C@H](C(=O)N[C@@H](CCCC)C(=O)NC(C)(C)C(=O)N[C@@H](Cc2ccc(Cl)cc2)C(=O)O)C[C@@H]2CCCC[C@@H]21)C(=O)O` [compound 517] ({Tridecanoyl-γGlu-AEEA-AEEA}-[dQ]R[Pip][NMeR][Cha]SHKG[Oic][Nle][Aib][Phe(4-Cl)]-OH), the amount remaining at 4 h, 5 μM in data set [1] was greater than 90%; in data set [2], 19%; in data set [3], less than 1%.

Consider `CCCCCCCCCCCCC(=O)N[C@@H](CCC(=O)NCCOCCOCC(=O)NCCOCCOCC(=O)N[C@@H](CCC(N)=O)C(=O)N[C@@H](CCCNC(=N)N)C(=O)N1CCC[C@H]1C(=O)N(C)[C@@H](CCCNC(=N)N)C(=O)N[C@@H](CC1CCCCC1)C(=O)N[C@@H](CO)C(=O)N[C@@H](Cc1c[nH]cn1)C(=O)N[C@@H](CCCCN)C(=O)NCC(=O)N1[C@H](C(=O)N[C@@H](CCCC)C(=O)N2CCC[C@H]2C(=O)N[C@@H](CC(=O)O)Cc2ccccc2)C[C@@H]2CCCC[C@@H]21)C(=O)O` [compound 380] ({Tridecanoyl-γGlu-AEEA-AEEA}-QRP[NMeR][Cha]SHKG[Oic][Nle]P[d(β3hF)]-OH), for which the share remaining at 4 h, 5 μM in data set [1] was found to be 97%; in data set [2], 2%; in data set [3] it was 1%.

Consider “120 (QRP[NMeR][Cha]SHKG[Oic][Nle][Aib][Phe(4-Cl)]; not fully specified (N-terminus); ends and bridges not checked; also: 10K mPEG acetamide on N-terminal MerPr) [compound 120]”, for which the “Stability at 4 hours (% Remaining) Plasma” value in data set [1] (4 h, 5 μM) turned out to be 68 % Remaining. Besides, the “Stability at 4 hours (% Remaining) Liver” value in data set [2] (4 h, 5 μM) came out at 61 % Remaining. Further, the “Stability at 4 hours (% Remaining) Kidney” value in data set [3] (4 h, 5 μM) is less than 1.0 % Remaining.

Consider `CCCCCCCCCCCCC(=O)N[C@@H](CCC(=O)NCCOCCOCC(=O)NCCOCCOCC(=O)N[C@H](CCC(N)=O)C(=O)N[C@@H](CCCNC(=N)N)C(=O)N1CCC[C@H]1CC(=O)N(C)[C@@H](CCCNC(=N)N)C(=O)N[C@@](C)(CC(C)C)C(=O)N[C@@H](CO)C(=O)N[C@@H](Cc1c[nH]cn1)C(=O)N[C@@H](CCCCN)C(=O)NCC(=O)N1[C@H](C(=O)N[C@@H](CCCC)C(=O)N2CCC[C@@]2(C)C(=O)N[C@@H](Cc2ccc(Cl)cc2)C(=O)O)C[C@@H]2CCCC[C@@H]21)C(=O)O` [compound 553] ({Tridecanoyl-γGlu-AEEA-AEEA}-[dQ]R[β3hP][NMeR][αMeL]SHKG[Oic][Nle][αMeP][Phe(4-Cl)]-OH), for which the fraction remaining at 4 h, 5 μM in data set [1] is greater than 90%; in data set [2], 29%; in data set [3], 15%.

Regarding `CCCCCCCCCCCCC(=O)N[C@@H](CCC(=O)NCCOCCOCC(=O)NCCOCCOCC(=O)N[C@H](CC(=O)N[C@@H](CCCNC(=N)N)C(=O)N1CCC[C@H]1C(=O)N(C)[C@@H](CCCNC(=N)N)C(=O)N[C@@H](CC1CCCCC1)C(=O)N[C@@H](CO)C(=O)N[C@@H](Cc1c[nH]cn1)C(=O)N[C@@H](CCCCN)C(=O)NCC(=O)N1[C@H](C(=O)N[C@@H](CCCC)C(=O)N2CCC[C@H]2C(=O)N[C@@H](Cc2ccc(Cl)cc2)C(=O)O)C[C@@H]2CCCC[C@@H]21)C(C)C)C(=O)O` [compound 393] ({Tridecanoyl-γGlu-AEEA-AEEA}-[β3hV]RP[NMeR][Cha]SHKG[Oic][Nle]P[Phe(4-Cl)]-OH), the fraction remaining at 4 h, 5 μM was greater than 90% in data set [1], 12% in data set [2] and 2% in data set [3].

Turning to `CCCCCC(=O)N[C@@H](CCC(=O)NCCOCCOCC(=O)NCCOCCOCC(=O)N[C@@H](CCC(N)=O)C(=O)N[C@@H](CCCNC(=N)N)C(=O)N1CCC[C@H]1C(=O)N(C)[C@@H](CCCNC(=N)N)C(=O)N[C@@H](CC1CCCCC1)C(=O)N[C@@H](CO)C(=O)N[C@@H](Cc1c[nH]cn1)C(=O)N[C@@H](CCCCN)C(=O)NCC(=O)N1[C@H](C(=O)N[C@@H](CCCC)C(=O)NC(C)(C)C(=O)N[C@@H](Cc2ccc(Cl)cc2)C(=O)O)C[C@@H]2CCCC[C@@H]21)C(=O)O` [compound 562] ({Hexanoyl-γGlu-AEEA-AEEA}-QRP[NMeR][Cha]SHKG[Oic][Nle][Aib][Phe(4-Cl)]-OH), the share remaining at 4 h, 5 μM was greater than 90% in data set [1], 4% in data set [2] and less than 1% in data set [3].
